Measurements published in patent US4508728A, “Method of treating inflammatory diseases” (priority 1984, dated 1985).

Columns and labels:
[1] = system: surgical wounds; assay: Wound healing: tensile strength of sutured surgical incision on the 7th day; assay type: in vivo, rat (Wister strain male); conditions: for Tensile Strength, % of control / Tensile Strength, X ± S.E.: daily for 7 days
Method: The healing effect of surgical wounds by homocarnosine was assessed in the following manner. Six-week old Wister strain male rats weighing around 170 g each were used. The rats which had their backs denuded over an extensive area by clippers were given an incision of about 4 cm by a sharp surgical knife along the dorsal medial line under ether anesthesia. A dosage of penicillin was administered to prevent the possibility of infective suppuration and the incision was uniformly sutured with silk threads at 3 spots. Homocarnosine was made into isotonic solution which was subcutaneously injected every day into 8 places on both sides of the incision equally for 7 days. Physiologic saline was employed as a control. The threads were removed 4 days after the formation of the incisions and the experimental animals were put to death on the 7th day under ether anesthesia, and 3 pieces of dosal skin, 3 cm in length and 1 cm in width each, were surgically cut off in such manner that the incision line lay at the middle of the piece. One side of each piece of skin was fixed and the other was pulled and the force required to separate the skin at the point the incision had been made was taken to indicate the tensile strength.

[2] = system: herpes zoster; assay: Clinical Case No. 4: herpes zoster; assay type: in vivo, human; conditions: person
From the text: 5% homocarnosine paste was applied to a case of herpes zoster.
Region: The herpes zoster extended from the lower part of right breast to the side of body.
Course of the complaint: The patient came for consultation after three days of subjective complaint. 1 g of 5% homocarnosine paste was applied to the diseased region.

[3] = Solubility in water; assay type: physicochemical
[4] = system: cervical erosion; assay: Clinical Case No. 5: cervical erosion; assay type: in vivo, human; conditions: suppository 20 mg
Method: 1.7 g suppository, one suppository containing 20 mg homocarnosine, was used for the following patients suffering from cervical erosion.

[5] = system: inflammation of respiratory tract; assay: Clinical Case No. 8: inflammation of respiratory tract, nebulizer; assay type: in vivo, human; design: key: -: Non effective; +: Effective; ++: Remarkably effective; conditions: 0.1% solution
From the text: 0.1% homocarnosine solution in physiological saline was used for the following patients suffering from inflammation of respiratory tract with the aid of nebulizer.

[6] = system: dental extraction wounds; assay: Clinical Case No. 1: dental extraction wound; assay type: in vivo, human; design: key to Cure (Wound Healing): ++: Found to be highly effective compared with ordinary therapy.; +: Effective; -: Noneffective; key to Postoperative pains, 2 hours / Postoperative pains, 12 hours / Postoperative pains, 24 hours: -: No subjective pains.; ±: Though subjective pains were present, no analgesic was used.; +: Subjective pains and an analgesic was administered
Method: 0.5% homocarnosine injection solution was administered to the wound brought about by a dental extraction.

[7] = system: angulus infectiosus; assay: Clinical Case No. 3: angulus infectiosus; assay type: in vivo, human; design: key: those cases in which the wounds became closed on the day following homocarnosine administration were judged as ++; those in which three applications were further needed before favorable results were obvious were judged as +
From the text: 0.5% homocarnosine in the form of a paste was applied in cases of angulus infectiosus in a dosage of 0.8 g on the basis of three times daily.
In assessing the effect of treatment, those cases in which the wounds became closed on the day following homocarnosine administration were judged as ++ and those in which three applications were further needed before favorable results were obvious were judged as +.

[8] = system: hemorrohoid; assay: Clinical Case No. 7: hemorrhoid; assay type: in vivo, human; design: key: -: Non effective; +: Effective; ++: Remarkably effective; conditions: suppository 10 mg
Method: 1.7 g suppository, one suppository containing 10 mg homocarnosine, was used for the following patients suffering from hemorrohoid.
*Conjointly administered with 0.5% homocarnosine ointment.

[9] = system: decubital ulcer; assay: Clinical Case No. 6: decubital ulcer; assay type: in vivo, human; design: key: -: Non effective; +: Effective; ++: Remarkably effective
From the text: 1% homocarnosine ointment was applied to the cases of decubital ulcer as follows.

[10] = system: granulation; assay: Granulation formation, formalin filter paper method (FFP method), with quantitative analysis of hydroxyprolin; assay type: in vivo, rat (Wister strain male); conditions: for Hydroxyproline / Wet weight of granulation: once daily for 7 days
From the text: The promotive action of granulation by homocarnosine was examined by a routine formalin filter paper method (FFP method) and the quantitative analysis of hydroxyprolin. For experimental purposes, use was made of groups of 5 or 6 six-week old Wister strain male rats weighing around 170 g each. The hair was sheared from the backs of these animals using clippers and under ether anesthesia they were given an incision of about 1 cm by a shap surgical knife along the dorsal median line. A piece of filter paper (No. 26 product by Toyo Filter Paper Co.) was cut into circles having a diameter of 6.7 mm which were immersed in a 7% formalin solution. In each rat, these filter paper circles, 4 altogether, were inserted underneath the skin of the right and left scapular areas and under the skin about 4 cm to the rear or these areas, two circles on the right side and two on the left side. A dose of penicillin was given to prevent the possibility of infective suppuration subcutaneously and the incised portion was sutured by use of clips. On the second day after the insertion of formalin immersed filter paper, the sutures were removed and on the seventh day they were put to death under ether anesthesia by cutting the carotid vessels, from which the mass of granulations that had been formed by formalin immersed filter paper was taken out. After the entire granular mass containing filter paper was measured for wet weight, the mass from the left scapular area was used for the quantitative analysis of hydroxyprolin. Homocarnosine was prepared in an isotonic solution and was injected into the animals either subcutaneously or peritoneally once daily for seven days after the suture. When an oral administration was needed, it was made in a 15% solution and was poured into the esophagus. The mass of granulations freed from the filter paper was defatted by ethanol-ether and after being rendered in the gelatin state by an autoclave it was added with concentrated hydrochloric acid and was hydrolyzed overnight at a temperature of 105° to 110° C. After it was thickened and dried at 105° to 110° C., the product was added with 0.02N hydrochloric acid and its hydroxyprolin was quantified by a Hitachi-835 amino acid automatic analyzer in an effort to estimate the amount of collagen that had been synthesized.

[11] = system: dermatitis; assay: Clinical Case No. 9: various types of dermatitis; assay type: in vivo, human; design: key to Effect: -: Non effective; +: Effective; ++: Remarkably effective
From the text: 0.5% homocarnosine in the form of an ointment was applied to the following patients suffering from various types of dermatitis.

[12] = system: aftha stomatitis; assay: Clinical Case No. 2: aftha stomatitis; assay type: in vivo, human; design: key: The patients in whom the pain disappeared immediately after injection of homocarnosine solution with no subsequent pain complaints on the following day, and the ulcerated area had shrunk postoperatively were assessed as favorable ++; conditions: 0.1 ml of 0.5% solution injected
Method: Patients who complained of the aftha stomatitis were injected with 0.5% homocarnosine solution.
The patients in whom the pain disappeared immediately after injection of homocarnosine solution with no subsequent pain complaints on the following day, and the ulcerated area had shrunk postoperatively were assessed as favorable ++.

[13] = case 1, horizontal impaction, 0.3 ml of 0.5% injection solution
[14] = case 2, alveolar osteitis, 0.3 ml of 0.5% injection solution
[15] = case 3, traumatic bone fracture, 0.1 ml of 0.5% injection solution
[16] = case 4, dental root cyst, 0.2 ml of 0.5% injection solution
[17] = case 5, alveolar osteitis, 0.3 ml of 0.5% injection solution

Structure (SMILES): NCCCC(=O)N[C@@H](Cc1cnc[nH]1)C(=O)O [Homocarnosine, L-histidinyl-γ-aminobutylic acid]
- Tensile Strength, % of control ([1]; 0.06 mg/rat i.d., 18 skins): 96.1 % of control
- Tensile Strength, X ± S.E. ([1]; 0.06 mg/rat i.d., 18 skins): 436.8 ± 27.6
- Tensile Strength, % of control ([1]; 0.6 mg/rat i.d., 15 skins): 108.6 % of control
- Tensile Strength, X ± S.E. ([1]; 0.6 mg/rat i.d., 15 skins): 493.3 ± 27.5
- Tensile Strength, % of control ([1]; 6.0 mg/rat i.d., 18 skins): 118.8 % of control
- Tensile Strength, X ± S.E. ([1]; 6.0 mg/rat i.d., 18 skins, p < 0.01): 539.6 ± 41.5
- Effect on surgical wounds, tensile strength on the 7th day (in words) ([1]; subcutaneous, 0.6 and 6.0 mg/rat): efficacy is indicated by the tensile strength of wounds on the 7th day
- Relapse ([2]; 1 g of 5% paste): no relapse of the symptom
- Pains ([2]; 1 g of 5% paste, in about one hour): the pains disappeared completely
- Cysts ([2]; 5% paste, 1 g five times daily): discolored and dry
- Herpes symptom ([2]; 5% paste, 1 g five times daily): cured after seven days
- Solubility in water [3]: readily soluble in water
- Effect (in words) ([4]; case 1, C II, 2 tablets in one day): Cured
- Effect (in words) ([4]; case 2, C IIIa, 1 tablet daily for 7 days): Cured
- Effect (in words) ([4]; case 3, C IIIb, 2 tablets daily for 7 days): Cured
- Effect (in words) ([4]; case 4, C IIIc, 2 tablets daily for 14 days): Cured
- Effect ([5]; case 1, allergic rhinitis, 0.8 ml × 2): ++
- Effect ([5]; case 2, inflamed respiratory tract, 1.0 ml × 1): ++
- Effect ([5]; case 3, inflamed respiratory tract, 1.0 ml × 3): ++
- Effect ([5]; case 4, tonsillitis, 1.0 ml × 3): ++
- Effect ([5]; case 5, asthma, 1.0 ml twice daily for 10 days): ++
- Cure (Wound Healing) [6, 13]: ++
- Postoperative pains, 2 hours [6, 13]: -
- Postoperative pains, 12 hours [6, 13]: ±
- Postoperative pains, 24 hours [6, 13]: -
- Cure (Wound Healing) [6, 14]: ++
- Postoperative pains, 2 hours [6, 14]: -
- Postoperative pains, 12 hours [6, 14]: -
- Postoperative pains, 24 hours [6, 14]: -
- Cure (Wound Healing) [6, 15]: ++
- Postoperative pains, 2 hours [6, 15]: -
- Postoperative pains, 12 hours [6, 15]: -
- Postoperative pains, 24 hours [6, 15]: -
- Cure (Wound Healing) [6, 16]: ++
- Postoperative pains, 2 hours [6, 16]: -
- Postoperative pains, 12 hours [6, 16]: +
- Postoperative pains, 24 hours [6, 16]: -
- Cure (Wound Healing) [6, 17]: ++
- Postoperative pains, 2 hours [6, 17]: -
- Postoperative pains, 12 hours [6, 17]: -
- Postoperative pains, 24 hours [6, 17]: -
- Effect ([7]; person five, right, 0.5% paste 0.8 g × 3): ++
- Effect ([7]; person four, right and left, 0.5% paste 0.8 g × 6): +
- Effect ([7]; person one, right, 0.5% paste 0.8 g × 3): ++
- Effect ([7]; person three, right, 0.5% paste 0.8 g × 3): ++
- Effect ([7]; person two, right and left, 0.5% paste 0.8 g × 6): +
- Effect ([7]; person, left, 0.5% paste 0.8 g × 3): ++
- Effect ([8]; case 1, ractal bleeding, 1 tablet daily for 4 days, conjointly with 0.5% homocarnosine ointment): ++
- Effect ([8]; case 2, inner hemorrhoids, 1 tablet daily for 14 days): ++
- Effect ([9]; case 1, back (2 × 4 cm), 1% ointment 0.5-1.0 g once daily for 4 days): ++
- Effect ([9]; case 2, nates (2 × 3 cm), 1% ointment 0.5-1.0 g once daily for 8 days): ++
- Hydroxyproline ([10]; 3 mg/kg i.p., 7 granuloma): 97.8 ± 10.1 % of control
- Wet weight of granulation ([10]; 3 mg/kg i.p., 18 granuloma): 96.1 ± 5.6 % of control
- Hydroxyproline ([10]; 10 mg/kg i.p., 9 granuloma): 127.6 ± 14.5 % of control
- Wet weight of granulation ([10]; 10 mg/kg i.p., 20 granuloma, p < 0.01): 121.3 ± 5.7 % of control
- Hydroxyproline ([10]; 30 mg/kg i.p., 8 granuloma): 123.9 ± 8.0 % of control
- Wet weight of granulation ([10]; 30 mg/kg i.p., 19 granuloma, p < 0.025): 126.6 ± 7.3 % of control
- Wet weight of granulation ([10]; 50 mg/kg i.p., 20 granuloma): 133.7 ± 7.2 % of control
- Wet weight of granulation ([10]; 70 mg/kg i.p., 24 granuloma): 131.7 ± 7.8 % of control
- Wet weight of granulation ([10]; 90 mg/kg i.p., 20 granuloma): 135.6 ± 7.2 % of control
- Granulation formation (in words) ([10]; 10, 30, 50, 70 and 90 mg/kg (i.p.)): effective in promoting granulation formation
- Hydroxyprolin amount (in words) ([10]; relative to wet weight of granulations): increased in proportion to an increase in the wet weight of granulations
- Effect ([11]; case 1, allergic dermatitis, 0.5% ointment 1.0 g twice daily): ++
- Effect ([11]; case 2, geriatric itchiness, 0.5% ointment 0.5 g before sleeping): ++
- Partial ulcer recovery (in words) ([11]; case 2, geriatric itchiness, 0.5% ointment 0.5 g, partial, after one application): ulcer recovery was noted
- Effect ([11]; case 3, eczema, 0.5% ointment 1.0 g twice daily for 2 days): ++
- Effect ([11]; case 4, burn (back of left hand), 0.5% ointment 1.0 g once daily for 4 days): ++
- Effect ([12]; case 1, isolative aphtha): ++
- Effect ([12]; case 2, tip of the tongue, person): ++
- Effect ([12]; case 3, lower surface of the tongue, person): ++
